Assay results: article PMC9411606, “Control cell migration by engineering integrin ligand assembly” (Nature Communications, 2022)

What was measured:
[1] = test system: cells expressing integrin α3β1; assay: Cell adhesion assay, cells expressing integrin α3β1; type: cell-based, human; conditions: coated with 100 µM, 1 h at 37 °C, n = 30
Experimental: The 96-well microplates wells were coated with peptide assemblies (the concentration of FFFIKLLI was kept at 100 μM constantly) for 12 hr at 37 °C before blocked with the Blocking Buffer (2% BSA, 1 mM CaCI2 and 1 mM MnCI2 in PBS) for 1 hr at 37 °C. Cells were collected from culture dishes and suspended in the Blocking Buffer containing anti-laminin-5 (P3H9-2, MAB1947, Chemicon, 5 μg/ml), anti-fibronectin (IST-9, ab6328, Abcam, 20 μg/ml) or IgG isotype control (20 μg/ml, Abcam) before immediately seeded to the coated well (20,000 cells/well) and allowed to incubate at 37 °C for 1 h. The wells were washed for three times with the Blocking Buffer and the phase-contrast images were captured by IncucyteS3 (Essen Bioscience) with a 10× objective.

[2] = TEM imaging / preparation of peptide assemblies (nanofilament size and stability); type: physicochemical; conditions: in water
Experimental: To prepare the stocks of peptide assembled nanofilaments, the required amount of peptide was dissolved in Milli-Q water at 100 mM (for FFF) or 10 mM (for the other peptides, and peptides mixture) and adjust the solution to reach a final pH of 7.0 using 1 N NaOH solution. To stabilize the peptide assemblies, the stock solutions were stored at room temperature for at least 24 h before application. The obtained nanofilaments were very stable and were not affected by simple dilution at neutral pH. Therefore, to prepare the working solution, the desired amount of stock solution was diluted using Milli-Q water or the culture medium. Stand the working solutions for 30 min to evenly distribute nanofilaments in the working solution before applying them to the experiments.
To prepare TEM samples, 5 μL peptide solution was dropped on a glow-charged copper grid (400 mesh) coated with carbon film. After removing excess solution, the grid was gently washed three times to remove excess nanofilaments. Then the sample grid was negatively stained using 1.0% (w/v) uranyl acetate and air-dried. TEM images were captured at a high vacuum using a transmission electron microscope (JEM-1230R, JEOL, Japan).

[3] = test system: Phospho-Myosin Light Chain 2 (Thr18/Ser19) (pMLC) in HuH-7 cells; assay: Western blotting pMLC; type: cell-based, human; conditions: relative to Ctrl = 1, 12 hr, representative blot
Experimental: Protein lysates were prepared in ice-cold RIPA lysis, and extraction buffer (Thermo Scientific) supplemented with 1% Halt Protease Inhibitor (Thermo Scientific) and 1% Halt Phosphatase inhibitor (Thermo Scientific). Cells were scraped off from the culture surface using a cold plastic cell scraper, and the cell suspension was then gently transferred into a pre-cooled microcentrifuge tube and maintained on ice for 30 min with constant agitation before centrifuged at 21000 × g for 20 min. The supernatant was then transferred to a new tube, and the protein concentration of the supernatant was quantified according to the Pierce™ BCA Protein Assay Kit (Thermo Scientific). The rest of the supernatant was mixed with 4x laemmli sample buffer (Bio-Rad) in a 1:3 ratio and boiled at 100 °C for 10 min. Lysates can be aliquoted and stored at −80 °C freezer. When running the gel, 30 μg of protein was loaded into each well of the SDS-PAGE gels, along with a molecular weight marker (Bio-Rad). The gel was run for 2 hr at constantly 100 V to separate the proteins based on the molecular weight. The proteins were then transferred from the SDS-gel to a PVDF membrane (Bio-Rad) using a Transfer-blot turbo system (Bio-Rad). […] Protein bands were quantified by measuring peak areas using ImageJ. […]

HuH-7 cells = assay: Traction stress analysis; type: cell-based, human; conditions: HuH-7 on PDMS, 12 hr, n = 18-21 cells
Experimental: mRuby-Lifeact-7 transfected HuH-7 cells were applied for the traction force microscopy experiments. The in situ fluorescent images of the cell was applied to define the area of measurement. The cells were seeded on a PDMS substrate functionalized with 0.2 µm FluoSpheres™ Carboxylate-Modified Microspheres (F8807, Invitrogen) at a density of approximately 6000 cells/cm^2. The substrate was fabricated by following the published protocol on (STAR) Protocol[45], except that there were no ECM proteins coated on the substrate here. […] After being pretreated with peptides for 12 hr, the samples were imaged by a 100×/1.35 Silicon UPlanSApo objective, and the bead displacement obtained from confocal imaging was converted into force-displacement fields following established protocol[47],[48]. Briefly, Images of beads with and without cell attachment were first aligned to correct experimental drift using ImageJ plugin “align slices in stack”. The displacement field was subsequently calculated by another ImageJ plugin “PIV (Particle Image Velocimetry)”. The cross-correlation PIV with a size of 64 × 32 pixels was used on all images for the PIV analysis to produce the position and vector field of the bead displacement. With the displacement field obtained from the PIV analysis, the traction force field was then reconstructed by the ImageJ plugin “FTTC”. […]

FFFIKLLI [assembling ligand: FFF coupled to the N-terminus of IKLLI; self-assembles into nanofilaments]
adherence to FFFIKLLI-coated dishes [1]: remained adhered to the substrate
nanofilament width ([2]; TEM, FFFIKLLI 100 μM): ~ 100 nm
nanofilament stability ([2]; neutral pH, simple dilution): stable
pMLC band [3]: 0.17
Average Traction Stress (HuH-7 cells): 0.101 kPa
Maximal Traction Stress (HuH-7 cells): 0.828 kPa
